Assay [1] deals with H508 human colon cancer cells. Put plainly: H508 colon cancer cell proliferation assay (sulforhodamine B colorimetric assay). The conditions noted are these: for effect on EGF-induced H508 cell proliferation: EGF 1 ng/ml; for effect on acetylcholine-induced H508 cell proliferation: acetylcholine 300 μM. The format is cell-based. The procedure: H508 colon cancer cell culture. H508 human colon cancer cells were grown in RPMI 1640 (ATCC) supplemented with 10% fetal bovine serum (FBS) (Biowhittaker). Adherent cultures were passaged weekly at subconfluence after trypsinization. Cultures were maintained in incubators at 37° C. in an atmosphere of 5% CO2 and 95% air.
H508 colon cancer cell proliferation assay. Cell proliferation was determined using the sulforhodamine B (SRB) colorimetric assay (Skehan et al., 1990). Cells were seeded in 96-well plates (Corning Glass Works, Corning, N.Y.) at approx. 10% confluence and allowed to attach for 24 h. Growth medium was removed and fresh medium without FBS and containing the indicated concentration of test agent was added. Cells were incubated for the indicated periods of time at 37° C. in an atmosphere of 5% CO2 and 95% air. After incubation, cells were treated for 30 min with 0.4% (w/v) SRB dissolved in 1% acetic acid. Protein-bound dye was extracted with unbuffered 10 mM Tris base. Absorbance was measured at 560 nm using a computer-interfaced, 96-well microtiter plate reader.
c-di-GMP inhibits proliferation of human colon cancer cells. The potential therapeutic actions of c-di-GMP were examined on basal and growth factor-stimulated proliferation of cells derived from a moderately differentiated human cecal adenocarcinoma (H508 cells) that express M3 muscarinic (M3R) and epidermal growth factor (EGF) receptors (EGFR) (Cheng et al., 2003). Cell proliferation was determined using the validated sulforhodamine B (SRB) calorimetric assay (Skehan et al., 1990). H508 cells were incubated in the absence or presence of a growth stimulant, acetylcholine (300 μM) and EGF (1 ng/ml) alone or with increasing concentrations of c-di-GMP (0.5-50 μM). After a 5-day incubation, the highest concentration of c-di-GMP tested, 50 μM, reduced basal H508 cell proliferation by approx. 15% (FIG. 1; p<0.05 compared to control, Student's unpaired t-test).

Assay [2] deals with p44/42 (ERK1/2) mitogen-activated protein kinase (MAPK) cascade. Put plainly: Acetylcholine- and EGF-induced activation of p44/42 MAPK signaling in H508 cells. The format is cell-based, human.
Setting [3] is: increasing concentrations 0.5-50 μM, 5 days.

Entries after “also recorded” stand apart in the source; their conditions may differ. Like-named read-outs stand apart in the source and are kept apart here.

For `Nc1nc(=O)c2ncn([C@@H]3OC4COP(=O)(O)O[C@H]5[C@@H](O)[C@H](n6cnc7c(=O)nc(N)[nH]c76)O[C@@H]5COP(=O)(O)OC4C3O)c2[nH]1` (stereo partly drawn) [c-di-GMP, Bis(3′-->5′)-cyclic diguanylic acid], the “effect on basal H508 cell proliferation” value was “inhibited” in assay [1] (50 μM, 5 days incubation); “inhibit” in assay [1] (increasing concentrations, 5 days (FIG. 1)); “did not significantly alter basal proliferation; also recorded: did not alter basal cell proliferation” in assay [1] (lower concentrations (below 50 μM), 5 days). In addition, the “effect on EGF-induced H508 cell proliferation” value is on record as “reduced to basal levels” in assay [1] (50 μM, 5 days) and “inhibit; also recorded: progressively inhibited” in assay [1] (setting [3]). In addition, the “effect on acetylcholine-induced H508 cell proliferation” value is reported as “reduced to basal levels” in assay [1] (50 μM, 5 days) and “inhibit; also recorded: progressively inhibited” in assay [1] (setting [3]). Also, the “reduction of basal H508 cell proliferation” value in assay [1] (50 μM, basal (no stimulant), 5-day incubation) is given as “approx. 15%”. The “effect on EGF-induced activation (phosphorylation) of p44/42 MAPK” value is given as “did not alter” in assay [2] and “do not inhibit” in assay [2] (listed as cyclic-di-GMP). For the same compound, the “effect on acetylcholine-induced activation (phosphorylation) of p44/42 MAPK” value is reported as “did not alter” in assay [2] and “do not inhibit” in assay [2] (listed as cyclic-di-GMP).

These data come from patent US7709458B2, “Method for inhibiting cancer cell proliferation or increasing cancer cell apoptosis” (priority 2004, dated 2010).
